{
  "source": "patent US20260199287A1",
  "about": "“LIPO-HYDROXAMIC ACID DERIVATIVE AND PHARMACEUTICAL USE THEREOF” (MediciBIO Co., Ltd, priority 2022, published 2026)",
  "tested_on": "human corneal endothelial cells",
  "assay": "In vitro antioxidant activity, ROS-Glo H2O2 assay in corneal dystrophy-like environment",
  "format": "cell-based",
  "settings": "compared to control group (corneal dystrophy-mimicking: UV 5 J/cm^2 + TGF-β1 10 ng/ml); sample 4 h before induction",
  "method": "PriNeu I medium, which is a serum-free medium, was supplemented with 10% fetal bovine serum, human epidermal growth factor (EGF), human vascular endothelial growth factor (VEGF), human insulin, human transferrin, sodium selenite, hydrocortisone, heparin, R estradiol, L-glutamine, penicillin/streptomycin, and G418 (geneticin). Human corneal endothelial cells (purchased from Creative Biolabs (NY, USA)) were seeded onto culture dishes coated with FNC Coating Mix (Athena Environmental Science, MD, USA) and incubated at 37° C. in a humidified 5% CO2 atmosphere.\nTo establish an intracellular environment similar to that of cells affected by corneal dystrophy (hereinafter referred to as “corneal dystrophy-like environment”), cellular signaling pathways involving reactive oxygen species (ROS) and transforming growth factor-beta (TGF-β), both known to be associated with corneal dystrophy, were activated. Human corneal endothelial cells were first cultured in standard medium for 24 hours, after which the medium was replaced with serum-free PriNeu I medium. The cells were then irradiated at an intensity of 5 J/cm^2 using a UV irradiation (BLX-Link, Vilber, France). Subsequently, the cells were treated with recombinant human TGF-β1 protein at a concentration of 10 ng/ml (Bon Opus, NJ, USA).\nTo determine the effect of the above-prepared lipo-hydroxamic acid derivatives on oxidative stress activity in corneal endothelial cells, human corneal endothelial cells were cultured at 1.5×10^4 cells per well in a 96-well plate coated with FNC Coating Mix for 18 to 24 hours. Subsequently, the cells were treated with the test samples (Samples 1, 3, and 5). […] The oxidative stress activity was determined by measuring the level of hydrogen peroxide (hereinafter referred to as “H2O2”) in the cell culture medium using the ROS-Glo™ H2O2 Assay (Promega, WI, USA) according to the manufacturer's instructions. The luminescence intensity was measured using the GloMax® Discover microplate reader (Promega) at an excitation wavelength of 485 nm and an emission wavelength of 520-530 nm.",
  "data": [
    {"compound": "CN(OCCO)C(=O)CCCC[C@@H]1CCSS1", "note": "[Sample 3, (R)-5-[1,2]dithiolan-3-yl-pentanoic acid (2-hydroxy-ethoxy)-methyl-amide]", "values": [
      {"measurement": "oxidative stress (H2O2 level in cell culture medium)", "result": "significantly decreased"}
    ]},
    {"compound": "O=C(CCCCC1CCSS1)N(O)C(=O)CCCCC1CCSS1", "note": "(centres unmarked) [Sample 5, 5-[1,2]dithiolan-3-yl-pentanoic acid (5-[1,2]dithiolan-3-yl-pentanoyl-hydroxy-amide)]", "values": [
      {"measurement": "oxidative stress (H2O2 level in cell culture medium)", "result": "significantly decreased"}
    ]}
  ]
}
